Data reported in patent US9149038B2, “4-amino-6-(heterocyclic)picolinates and 6-amino-2-(heterocyclic)pyrimidine-4-carboxylates and their use as herbicides” (Dow AgroSciences LLC, priority 2013, dated 2015).
Where two headings read alike, the source gives them in different places.

Assays:
[1] = system: Key Broadleaf Weed and Crop Species; test: Post-Emergent Test II: postemergent herbicidal activity, visual rating after 14 d (Table 7); type: in vivo; conditions: post-emergence, 336 h; for pest or weed control at 35 g/ha: 35 g ai/ha; for pest or weed control at 70 g/ha: 70 g ai/ha; for pest or weed control at 140 g/ha: 140 g ai/ha
Outline: (§1)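 Greenhouse-grown plants at the first or second true leaf stage (7-21 d, ~15 h photoperiod, 23-29° C day) were sprayed with compound in acetone/DMSO-based aqueous spray containing crop oil concentrate and Triton X-155 at 187 L/ha. Injury versus untreated plants was rated visually after 14 d on a 0-100 scale.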

[2] = system: Key Grass and Sedge Weeds as well as Grass Crops; test: Post-Emergent Test II: postemergent herbicidal activity, visual rating after 14 d (Table 8); type: in vivo; conditions: post-emergence, 336 h; for pest or weed control at 35 g/ha: 35 g ai/ha; for pest or weed control at 70 g/ha: 70 g ai/ha; for pest or weed control at 140 g/ha: 140 g ai/ha
Outline: as §1

[3] = ABUTH: velvetleaf (Abutilon theophrasti), read-out: Visual Growth Reduction (%) 14 Days After Application ABUTH
[4] = AMARE: redroot pigweed (Amaranthus retroflexus), read-out: Visual Growth Reduction (%) 14 Days After Application AMARE
[5] = BRSNN: oilseed rape, canola (Brassica napus), read-out: Visual Growth Reduction (%) 14 Days After Application BRSNN
[6] = CHEAL: lambsquarters (Chenopodium album), read-out: Visual Growth Reduction (%) 14 Days After Application CHEAL
[7] = EPHHL: wild poinsettia (Euphorbia heterophylla), read-out: Visual Growth Reduction (%) 14 Days After Application EPHHL
[8] = HELAN: sunflower (Helianthus annuus), read-out: Visual Growth Reduction (%) 14 Days After Application HELAN
[9] = barnyardgrass (Echinochloa crus-galli), read-out: Visual Growth Reduction (%) 14 Days After Application, ECHCG
[10] = giant foxtail (Setaria faberi), read-out: Visual Growth Reduction (%) 14 Days After Application, SETFA
[11] = maize, corn (Zea mays), read-out: Visual Growth Reduction (%) 14 Days After Application, ZEAMX
[12] = rice (Oryza sativa), read-out: Visual Growth Reduction (%) 14 Days After Application, ORYSA
[13] = wheat, spring (Triticum aestivum), read-out: Visual Growth Reduction (%) 14 Days After Application, TRZAS
[14] = yellow nutsedge (Cyperus esculentus), read-out: Visual Growth Reduction (%) 14 Days After Application, CYPES

| SMILES | pest or weed control at 35 g/ha [1, 3] | pest or weed control at 70 g/ha [1, 3] | pest or weed control at 140 g/ha [1, 3] | pest or weed control at 35 g/ha [1, 4] | pest or weed control at 70 g/ha [1, 4] | pest or weed control at 140 g/ha [1, 4] | pest or weed control at 35 g/ha [1, 5] | pest or weed control at 70 g/ha [1, 5] | pest or weed control at 140 g/ha [1, 5] | pest or weed control at 35 g/ha [1, 6] | pest or weed control at 70 g/ha [1, 6] | pest or weed control at 140 g/ha [1, 6] | pest or weed control at 35 g/ha [1, 7] | pest or weed control at 70 g/ha [1, 7] | pest or weed control at 140 g/ha [1, 7] | pest or weed control at 35 g/ha [1, 8] | pest or weed control at 70 g/ha [1, 8] | pest or weed control at 140 g/ha [1, 8] | pest or weed control at 35 g/ha [2, 9] | pest or weed control at 70 g/ha [2, 9] | also measured |
| --- | --- | --- | --- | --- | --- | --- | --- | --- | --- | --- | --- | --- | --- | --- | --- | --- | --- | --- | --- | --- | --- |
| COC(=O)c1nc(-c2ccc(F)c3c2OCO3)c(F)c(N)c1Cl [Compound 83] | 85 to 94% | 85 to 94% | 95 to 100% | 95 to 100% | 95 to 100% | 95 to 100% | 30 to 44% | 95 to 100% | 95 to 100% | 95 to 100% | 95 to 100% | 95 to 100% | 0 to 29% | 0 to 29% | 0 to 29% | 85 to 94% | 95 to 100% | 95 to 100% | 0 to 29% | 0 to 29% | pest or weed control at 140 g/ha [2, 9]: 0 to 29%; pest or weed control at 35 g/ha [2, 10]: 0 to 29%; pest or weed control at 70 g/ha [2, 10]: 0 to 29%; pest or weed control at 140 g/ha [2, 10]: 0 to 29%; pest or weed control at 35 g/ha [2, 11]: 0 to 29%; pest or weed control at 70 g/ha [2, 11]: 0 to 29%; pest or weed control at 140 g/ha [2, 11]: 0 to 29%; pest or weed control at 35 g/ha [2, 12]: 0 to 29%; pest or weed control at 70 g/ha [2, 12]: 0 to 29%; pest or weed control at 140 g/ha [2, 12]: 0 to 29%; pest or weed control at 35 g/ha [2, 13]: 0 to 29%; pest or weed control at 70 g/ha [2, 13]: 0 to 29%; pest or weed control at 140 g/ha [2, 13]: 0 to 29%; pest or weed control at 35 g/ha [2, 14]: 0 to 29%; pest or weed control at 70 g/ha [2, 14]: 0 to 29%; pest or weed control at 140 g/ha [2, 14]: 0 to 29% |
| Nc1c(F)c(-c2ccc3c(c2)COC3)nc(C(=O)O)c1Cl [Compound 104] | 0 to 29% | 0 to 29% | 0 to 29% | 0 to 29% | 0 to 29% | 0 to 29% | 0 to 29% | 0 to 29% | 0 to 29% | 45 to 59% | 85 to 94% | 85 to 94% | 0 to 29% | 0 to 29% | 0 to 29% | 45 to 59% | 75 to 84% | 75 to 84% | 0 to 29% | 0 to 29% | pest or weed control at 140 g/ha [2, 9]: 0 to 29%; pest or weed control at 35 g/ha [2, 10]: 0 to 29%; pest or weed control at 70 g/ha [2, 10]: 0 to 29%; pest or weed control at 140 g/ha [2, 10]: 0 to 29%; pest or weed control at 35 g/ha [2, 11]: 0 to 29%; pest or weed control at 70 g/ha [2, 11]: 0 to 29%; pest or weed control at 140 g/ha [2, 11]: 0 to 29%; pest or weed control at 35 g/ha [2, 12]: 0 to 29%; pest or weed control at 70 g/ha [2, 12]: 0 to 29%; pest or weed control at 140 g/ha [2, 12]: 0 to 29%; pest or weed control at 35 g/ha [2, 13]: 0 to 29%; pest or weed control at 70 g/ha [2, 13]: 0 to 29%; pest or weed control at 140 g/ha [2, 13]: 0 to 29%; pest or weed control at 35 g/ha [2, 14]: 0 to 29%; pest or weed control at 70 g/ha [2, 14]: 0 to 29%; pest or weed control at 140 g/ha [2, 14]: 0 to 29% |
